Measurements published in patent US20210180023A1, “CARDIAC REPAIR BY REPROGRAMMING OF ADULT CARDIAC FIBROBLASTS INTO CARDIOMYOCYTES” (The Board of Regents of the University of Texas System, priority 2017, published 2021).

Experiments:
adult αMHC-GFP TTFs = experiment: Flow cytometry of αMHC-GFP+ and cTnT+ TTFs after retroviral reprogramming; type: cell-based, mouse; settings: ZNF281 added to 5F (6F), 7 days
Experimental: (§1) Retroviruses production, cellular reprogramming and treatment. For retroviruses production, Platinum E cells were seeded into culture dishes (1×10^5 cells/cm2) one day before transfection in DMEM supplemented with 10% FBS and 1% penicillin/streptomycin. Cells reached ˜80% confluency on the day of transfection. DNA plasmids were transfected into Platinum E cells using FuGENE 6 transfection reagent. Twenty-four hours after transfection, wild type or αMHC-GFP tail-tip fibroblasts were seeded into culture dishes or plates that were precoated with SureCoat (Cellutron) for one hour at a density of 6×10^4/cm^2. Forty-eight hours after transfection, polybrene was added to viral medium that was filtered through a 0.45-μm filter at a concentration of […]. The mixture replaced the growth medium in the cell culture plate with tail-tip fibroblasts. The viral infection was serially repeated twice. Twenty-four hours after the second infection, the viral medium was replaced with induction medium, composed of DMEM/199 (4:1), 10% conditioned medium obtained from neonatal rat cardiomyocyte culture, 10% FBS, 5% horse serum, 1% penicillin/streptomycin, 1% nonessential amino acids, 1% essential amino acids, 1% B-27, 1% insulin-selenium-transferrin, 1% vitamin mixture, and 1% sodium pyruvate (Invitrogen). Small molecule treatments were used throughout the reprogramming process […] (Sigma).
Flow Cytometry. For flow Cytometry, cells were trypsinized and fixed with fixation buffer (BD Bioscience) for 15 min on ice. Fixed cells were washed with Perm/Wash buffer (BD Bioscience) for three times. […] Cells were washed with Perm/Wash buffer, and then analyzed using FACS Caliber (BD Sciences) and FlowJo software.
ZNF281 enhances cardiac reprogramming of adult fibroblasts. […] The addition of ZNF281 to 5F increased the expression of GFP and cTnT in αMHC-GFP CFs evaluated by immunocytochemistry after 7 days of reprogramming (FIG. 10A). […]

adult TTFs = experiment: q-PCR of marker transcripts in retrovirally reprogrammed adult TTFs; type: cell-based, mouse; settings: ZNF281 added to 5F, versus 5F
Experimental: as §1
Quantitative mRNA measurement. Total RNA was extracted using TRIzol (Invitrogen) according vender's protocol. RNAs were retrotranscribed to cDNA using iScript Supermix (Bio-Rad). qPCR was performed using Kapa Sybr Fast (Kapa Biosystems). mRNA levels were normalized by comparison to Gapdh mRNA.
(§2) ZNF281 enhances cardiac reprogramming of adult fibroblasts. PHF7 and ZNF281 were the two strongest activators identified from retroviral cDNA expression screen with 5F (FIG. 1D; Table S2). PHF7 is only expressed in the male germ line (Yang et al., 2012), whereas ZNF281 has a broad expression pattern with enriched expression in the heart (FIG. 51). The inventors therefore focused their initial attention on ZNF281 and explored its ability to enhance the activity of 5F. They refer to the reprogramming mix of 5F plus ZNF281 as 6F. […] The addition of ZNF281 to 5F increased the expression of GFP and cTnT in αMHC-GFP CFs evaluated by immunocytochemistry after 7 days of reprogramming (FIG. 10A). […]
Co-repression of inflammatory genes by ZNF281 and NuRD complex components. […] Addition of NuRD complex subunits also promoted cardiac reprogramming, as measured by flow cytometry using the cardiac markers αMHC-GFP and cTnT (FIG. 5B, FIGS. S2A-B).

[1] = test system: αMHC-GFP adult cardiac fibroblasts (CF); experiment: Flow cytometry (FACS) of αMHC-GFP+ and cTnT+ adult cardiac fibroblasts after reprogramming; type: cell-based, mouse; settings: ZNF281 added to 5F, adult CFs, 7 days
Experimental: Flow Cytometry. For flow Cytometry, cells were trypsinized and fixed with fixation buffer (BD Bioscience) for 15 min on ice. Fixed cells were washed with Perm/Wash buffer (BD Bioscience) for three times. Washed cells were incubated with mouse monoclonal anti-cardiac Troponin T (cTnT) antibody (Thermo Scientific) at 1:200 dilution and Rabbit anti-GFP antibody (Thermo Scientific) at 1:200 dilution in Perm/Wash buffer for 1 hr on ice. Cells then were washed with Perm/Wash buffer for three times followed by incubation with donkey anti-mouse Alexa fluor 647 (Invitrogen) at 1:200 and goat anti-rabbit Alexa fluor 488 at 1:200 (Invitrogen). Cells were washed with Perm/Wash buffer, and then analyzed using FACS Caliber (BD Sciences) and FlowJo software.
as §2, with “6F. The inventors validated the results of their screen by assessing GFP and cTnT expression in αMHC-GFP TTFs following 5F and 6F reprogramming after 7 days (FIG. 3A). […] This TTF reprogramming efficiency using 6F is noteworthy when considering the relatively low statistical likelihood of each fibroblast taking up all five or six separate retroviruses encoding the reprogramming factors. The inventors also examined the expression of cardiac and fibroblast transcripts by q-PCR.” for “6F.”

[2] = test system: αMHC promoter (αMHC-Luciferase); experiment: αMHC-luciferase reporter assay in HEK293 cells; type: cell-based
From the text: To determine if ZNF281 could directly activate cardiac genes, the inventors examined the ability of ZNF281 to activate a luciferase reporter controlled by the αMHC promoter (αMHC-Luciferase).

Zinc finger protein 281 [ZNF281]
cTnT+ TTFs (adult αMHC-GFP TTFs): ~45%
αMHC-GFP+ TTFs (adult αMHC-GFP TTFs): ~33%
αMHC-GFP+/cTnT+ TTFs (adult αMHC-GFP TTFs): ~28%
decrease of Col1a2 expression (adult TTFs): ~30%
decrease of Sox9 expression (adult TTFs): ~60%
increase of Actc1 expression (adult TTFs): ~20 fold
increase of Myh6 expression (adult TTFs): ~120 fold
cTnT+ iCMs [1]: ~45%
αMHC-GFP+ iCMs [1]: ~25%
αMHC-GFP+/cTnT+ iCMs [1]: ~21%
activation of αMHC-Luciferase reporter ([2]; ZNF281 alone): ~7 fold
activation of αMHC-Luciferase reporter ([2]; ZNF281 co-expressed with GATA4): ~15 fold
